Laboratory results published in US20120172379A1, “4 SUBSTITUTED PYRAZOLOPYRIMIDINES” (VERTEX PHARMACEUTICALS INCORPORATED, priority 2009, published 2012).

Tests used:
Type in all cases: biochemical
PKC delta kinase = PKC delta kinase (Homo sapiens, UniProt Q05655); assay: PKC Delta coupled-enzyme kinase assay (NADH consumption, absorbance at 340 nm); details: 46 nM PKC delta kinase, ATP final assay concentration of 150, 150 μM substrate peptide, 30° C.
Method: An assay buffer solution was prepared which consisted of 100 mM HEPES (pH 7.5), 10 mM MgCl2, 25 mM NaCl, 0.1 mM EDTA and 0.01% Brij. An enzyme buffer containing reagents to final assay concentrations of 0.002% Triton X-100, 200 μg/mL Phosphatidylserine, 20 μg/mL Diacylglycerol; 360 μM NADH, 3 mM phosphoenolpyruvate, 70 μg/mL pyruvate kinase, 24 μg/mL lactate dehydrogenase, 2 mM DTT, 150 μM substrate peptide (ERMRPRKRQGSVRRRV SEQ ID NO. 2) and 46 nM PKC delta kinase was prepared in assay buffer. To 16 μL of this enzyme buffer, in a 384 well plate, was added 1 μL of VRT stock solution in DMSO. The mixture was allowed to equilibrate for 10 mins at 30° C. The enzyme reaction was initiated by the addition of 16 μL stock ATP solution prepared in assay buffer to a final assay concentration of 150 Initial rate data was determined from the rate of change of absorbance at 340 nm (corresponding to stoichiometric consumption of NADH) using a Molecular Devices Spectramax plate reader (Sunnyvale, Calif.) over 15 mins at 30° C. For each Ki determination 12 data points covering the VRT concentration range of 0-20 μM were obtained in duplicate (DMSO stocks were prepared from an initial 10 mM VRT stock with subsequent 1:2 serial dilutions). Ki values were calculated from initial rate data by non-linear regression using the Prism software package (Prism 4.0a, Graphpad Software, San Diego, Calif.).

PKC theta kinase = PKC theta kinase (Homo sapiens, UniProt Q04759); assay: PKC Theta coupled-enzyme kinase assay (NADH consumption, absorbance at 340 nm); details: 18 nM PKC theta kinase, 240 μM ATP, 100 μM substrate peptide, 30° C.
Chain of PKC theta kinase (Q04759 whole entry): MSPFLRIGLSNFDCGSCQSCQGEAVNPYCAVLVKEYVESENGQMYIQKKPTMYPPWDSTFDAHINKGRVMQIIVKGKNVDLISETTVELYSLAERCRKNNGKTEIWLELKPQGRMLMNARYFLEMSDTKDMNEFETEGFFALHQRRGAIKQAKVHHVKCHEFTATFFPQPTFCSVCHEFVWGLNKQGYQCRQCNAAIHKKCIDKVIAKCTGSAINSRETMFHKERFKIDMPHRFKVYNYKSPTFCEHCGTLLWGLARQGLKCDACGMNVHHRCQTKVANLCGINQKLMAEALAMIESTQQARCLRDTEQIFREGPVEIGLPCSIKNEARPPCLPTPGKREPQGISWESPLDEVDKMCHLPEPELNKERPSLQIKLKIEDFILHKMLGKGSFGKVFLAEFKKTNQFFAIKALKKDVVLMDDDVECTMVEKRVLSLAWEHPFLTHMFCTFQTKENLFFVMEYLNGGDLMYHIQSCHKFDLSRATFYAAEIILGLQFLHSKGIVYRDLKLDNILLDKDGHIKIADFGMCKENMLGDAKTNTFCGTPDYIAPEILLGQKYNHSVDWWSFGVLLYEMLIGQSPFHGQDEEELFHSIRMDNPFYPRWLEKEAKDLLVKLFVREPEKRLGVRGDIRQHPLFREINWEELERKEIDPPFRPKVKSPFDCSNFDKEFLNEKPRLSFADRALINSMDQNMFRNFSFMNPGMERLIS
Method: An assay buffer solution was prepared which consisted of 100 mM HEPES (pH 7.5), 10 mM MgCl2, 25 mM NaCl, 0.1 mM EDTA and 0.01% Brij. An enzyme buffer containing reagents to final assay concentrations of 0.00001% Triton X-100, 200 μg/mL Phosphatidylserine, 20 μg/mL Diacylglycerol, 360 μM NADH, 3 mM phosphoenolpyruvate, 70 μg/mL pyruvate kinase, 24 μg/mL lactate dehydrogenase, 2 mM DTT, 100 μM substrate peptide (ERMRPRKRQGSVRRRV SEQ ID NO. 1) and 18 nM PKC theta kinase was prepared in assay buffer. To 60 μL of this enzyme buffer, in a 384 well plate, was added 2 μL of VRT stock solution in DMSO. The mixture was allowed to equilibrate for 10 mins at 30° C. The enzyme reaction was initiated by the addition of 5 μL stock ATP solution prepared in assay buffer to a final assay concentration of 240 μM. Initial rate data was determined from the rate of change of absorbance at 340 nm (corresponding to stoichiometric consumption of NADH) using a Molecular Devices Spectramax plate reader (Sunnyvale, Calif.) over 15 mins at 30° C. For each Ki determination 12 data points covering the VRT concentration range of 0-20 μM were obtained in duplicate (DMSO stocks were prepared from an initial 10 mM VRT stock with subsequent 1:2 serial dilutions). Ki values were calculated from initial rate data by non-linear regression using the Prism software package (Prism 4.0a, Graphpad Software, San Diego, Calif.). […] 1.25 D>2.8 μM.

PKC alpha kinase = PKC alpha kinase (Homo sapiens, UniProt P17252); assay: PKC Alpha coupled-enzyme kinase assay (NADH consumption, absorbance at 340 nm); details: 4.5 nM PKC alpha kinase, 130 μM ATP, 150 μM substrate peptide, 100 μM CaCl2, 30° C.
Method: An assay buffer solution was prepared which consisted of 100 mM HEPES (pH 7.5), 10 mM MgCl2, 25 mM NaCl, 0.1 mM EDTA, 100 μM CaCl2 and 0.01% Brij. An enzyme buffer containing reagents to final assay concentrations of 0.002% Triton X-100, 100 μg/mL Phosphatidylserine, 20 μg/mL Diacylglycerol, 360 μM NADH, 3 mM phosphoenolpyruvate, 70 μg/mL pyruvate kinase, 24 μg/mL lactate dehydrogenase, 2 mM DTT, 150 μM substrate peptide (RRRRRKGSFKRKA SEQ ID NO. 3) and 4.5 nM PKC alpha kinase was prepared in assay buffer. To 16 μL of this enzyme buffer, in a 384 well plate, was added 1 μL of VRT stock solution in DMSO. The mixture was allowed to equilibrate for 10 mins at 30° C. The enzyme reaction was initiated by the addition of 16 μL stock ATP solution prepared in assay buffer to a final assay concentration of 130 μM. Initial rate data was determined from the rate of change of absorbance at 340 nm (corresponding to stoichiometric consumption of NADH) using a Molecular Devices Spectramax plate reader (Sunnyvale, Calif.) over 15 mins at 30° C. For each Ki determination 12 data points covering the VRT concentration range of 0-20 μM were obtained in duplicate (DMSO stocks were prepared from an initial 10 mM VRT stock with subsequent 1:2 serial dilutions). Ki values were calculated from initial rate data by non-linear regression using the Prism software package (Prism 4.0a, Graphpad Software, San Diego, Calif.).

Chain of PKC delta kinase (Q05655 whole entry): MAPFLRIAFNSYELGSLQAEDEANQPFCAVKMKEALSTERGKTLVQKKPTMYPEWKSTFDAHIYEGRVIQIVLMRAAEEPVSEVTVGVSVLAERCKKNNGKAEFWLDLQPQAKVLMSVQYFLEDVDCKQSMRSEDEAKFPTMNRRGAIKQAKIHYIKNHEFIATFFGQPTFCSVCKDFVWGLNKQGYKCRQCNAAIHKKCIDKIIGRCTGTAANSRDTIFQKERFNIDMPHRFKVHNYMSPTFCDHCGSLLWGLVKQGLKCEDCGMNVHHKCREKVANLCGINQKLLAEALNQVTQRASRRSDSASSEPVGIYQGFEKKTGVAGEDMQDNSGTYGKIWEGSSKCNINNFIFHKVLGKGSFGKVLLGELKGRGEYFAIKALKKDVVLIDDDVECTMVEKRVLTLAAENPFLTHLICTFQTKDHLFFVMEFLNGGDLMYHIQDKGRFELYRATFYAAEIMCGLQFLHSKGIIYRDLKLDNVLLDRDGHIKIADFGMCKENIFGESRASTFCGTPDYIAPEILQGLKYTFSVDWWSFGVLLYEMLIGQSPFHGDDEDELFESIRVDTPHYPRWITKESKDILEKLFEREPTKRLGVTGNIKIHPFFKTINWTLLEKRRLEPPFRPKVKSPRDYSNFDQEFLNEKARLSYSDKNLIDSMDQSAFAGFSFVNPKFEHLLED

Ki (PKC delta kinase) [nM]	Ki (PKC theta kinase) [nM]	Ki (PKC alpha kinase) [nM]	Compound
> 1250	50 to 500	> 1250	N#CC1(c2cccc(-c3ncnc4[nH]nc(C5CC5)c34)c2)CC1 [Compound 1, 1-(3-(3-cyclopropyl-1H-pyrazolo[3,4-d]pyrimidin-4-yl)phenyl)cyclopropanecarbonitrile]
–	< 50	> 1250	CCc1n[nH]c2ncnc(-c3cccc(C4(C#N)CC4)c3)c12 [Compound 2]
500 to 2800	< 50	> 1250	N#CC1(c2cccc(-c3ncnc4[nH]ncc34)c2)CC1 [Compound 3, 1-(3-(1H-pyrazolo[3,4-d]pyrimidin-4-yl)phenyl)cyclopropane carbonitrile]
> 1250	< 50	> 1250	Cc1n[nH]c2ncnc(-c3cccc(C4(C#N)CC4)c3)c12 [Compound 4]
50 to 500	< 50	500 to 2800	CCc1n[nH]c2ncnc(-c3cccc(C4(CN)CC4)c3)c12 [Compound 5, (1-(3-(3-ethyl-1H-pyrazolo[3,4-d]pyrimidin-4-yl)phenyl)cyclopropyl)methanamine]
500 to 2800	50 to 500	> 1250	Cc1n[nH]c2ncnc(-c3cccc(C4(CN)CC4)c3)c12 [Compound 6]
> 1250	> 700	> 1250	NC(=O)C1(c2cccc(-c3ncnc4[nH]nc(C(F)(F)F)c34)c2)CC1 [Compound 7, 1-(3-(3-(trifluoromethyl)-1H-pyrazolo[3,4-d]pyrimidin-4-yl)phenyl)cyclopropanecarboxamide]
50 to 500	< 50	50 to 500	CCc1n[nH]c2ncnc(-c3cc(F)cc(C4(CN)CCC4)c3)c12 [Compound 8, (1-(3-(3-ethyl-1H-pyrazolo[3,4-d]pyrimidin-4-yl)-5-fluorophenyl)cyclobutyl)methanamine]
